Results taken from patent US10870647B2, “Imidazopyridine derivative, method for preparing same, and pharmaceutical composition containing same as active ingredient for preventing or treating cancer” (DAEGU-GYEONGBUK MEDICAL INNOVATION FOUNDATION, priority 2016, dated 2020).

Key:
Experiment in all cases: Kinase selectivity, scanMAX Kinase assay panel (DiscoverX), % control at 1 uM
Format in all cases: binding
[1] = target: T1, scanMAX Kinase assay panel (Homo sapiens, UniProt P00533, T790M); conditions: EGFR (T790M); 1 uM; read-out: Percent Control (%)
T1 construct: purchased DiscoverX
Procedure, shortened: (§1)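 Single-point screen at 1 uM compound in DMSO. Lower % control means stronger inhibition, with the cutoff for activity set at <35%.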

[2] = target: T2, scanMAX Kinase assay panel (Homo sapiens, UniProt P36888, D835H); conditions: FLT3 (D835H); 1 uM; read-out: Percent Control (%)
T2 construct: purchased DiscoverX
T2 sequence (P36888 27-993 D835H): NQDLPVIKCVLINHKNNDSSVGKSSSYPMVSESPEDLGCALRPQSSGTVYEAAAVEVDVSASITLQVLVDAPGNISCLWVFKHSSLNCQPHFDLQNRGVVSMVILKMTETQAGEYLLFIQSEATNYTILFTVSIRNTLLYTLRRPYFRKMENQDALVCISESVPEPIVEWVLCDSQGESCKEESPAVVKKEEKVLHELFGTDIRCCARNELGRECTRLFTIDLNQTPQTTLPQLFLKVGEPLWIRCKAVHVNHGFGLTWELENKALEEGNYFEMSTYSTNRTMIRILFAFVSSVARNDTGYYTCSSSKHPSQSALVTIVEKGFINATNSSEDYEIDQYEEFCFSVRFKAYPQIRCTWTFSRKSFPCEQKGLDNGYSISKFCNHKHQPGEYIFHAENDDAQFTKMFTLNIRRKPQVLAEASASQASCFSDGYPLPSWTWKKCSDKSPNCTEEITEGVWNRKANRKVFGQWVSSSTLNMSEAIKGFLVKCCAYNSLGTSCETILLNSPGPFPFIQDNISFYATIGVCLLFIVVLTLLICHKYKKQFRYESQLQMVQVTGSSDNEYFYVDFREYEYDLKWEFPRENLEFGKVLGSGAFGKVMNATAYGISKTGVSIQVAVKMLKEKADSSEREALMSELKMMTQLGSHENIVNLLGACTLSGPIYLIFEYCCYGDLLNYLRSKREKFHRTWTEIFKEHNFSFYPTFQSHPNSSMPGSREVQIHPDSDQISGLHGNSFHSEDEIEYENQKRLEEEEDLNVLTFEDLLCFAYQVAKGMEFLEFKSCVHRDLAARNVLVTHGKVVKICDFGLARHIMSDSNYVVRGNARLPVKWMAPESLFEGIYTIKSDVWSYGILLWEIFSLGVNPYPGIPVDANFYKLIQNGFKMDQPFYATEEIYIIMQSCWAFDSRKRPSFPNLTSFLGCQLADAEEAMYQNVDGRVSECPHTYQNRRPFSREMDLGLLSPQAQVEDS
Procedure, shortened: as §1

[3] = target: T3, scanMAX Kinase assay panel (Homo sapiens, UniProt P36897); conditions: TGFBR1; 1 uM; read-out: Percent Control (%)
T3 construct: purchased DiscoverX
T3 sequence (P36897 34-503): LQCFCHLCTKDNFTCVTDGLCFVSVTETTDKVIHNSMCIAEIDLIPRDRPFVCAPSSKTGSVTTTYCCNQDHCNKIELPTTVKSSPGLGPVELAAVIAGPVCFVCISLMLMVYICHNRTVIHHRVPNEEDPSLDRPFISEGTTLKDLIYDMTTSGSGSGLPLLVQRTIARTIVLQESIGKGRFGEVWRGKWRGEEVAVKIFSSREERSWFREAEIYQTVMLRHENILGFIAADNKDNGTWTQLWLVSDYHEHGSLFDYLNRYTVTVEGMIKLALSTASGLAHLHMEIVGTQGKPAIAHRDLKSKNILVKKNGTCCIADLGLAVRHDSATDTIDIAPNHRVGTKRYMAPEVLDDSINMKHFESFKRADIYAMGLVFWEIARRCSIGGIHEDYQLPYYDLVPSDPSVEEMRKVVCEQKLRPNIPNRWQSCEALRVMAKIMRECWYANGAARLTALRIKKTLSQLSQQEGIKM
Procedure, shortened: as §1

[4] = target: T4, scanMAX Kinase assay panel (Homo sapiens, UniProt P42336, H1047L); conditions: PIK3CA (H1047L); 1 uM; read-out: Percent Control (%)
T4 construct: purchased DiscoverX
Procedure, shortened: as §1

[5] = target: T5, scanMAX Kinase assay panel (Homo sapiens, UniProt P48736); conditions: PIK3CG; 1 uM; read-out: Percent Control (%)
T5 construct: purchased DiscoverX
Procedure, shortened: as §1

[6] = target: T6, scanMAX Kinase assay panel (Homo sapiens, UniProt Q13153); conditions: PAK1; 1 uM; read-out: Percent Control (%)
T6 construct: purchased DiscoverX
Procedure, shortened: as §1

[7] = target: T7, scanMAX Kinase assay panel (Homo sapiens, UniProt Q13705); conditions: ACVR2B; 1 uM; read-out: Percent Control (%)
T7 construct: purchased DiscoverX
Procedure, shortened: as §1

[8] = target: T8, scanMAX Kinase assay panel (Homo sapiens, UniProt Q13976); conditions: PRKG1; 1 uM; read-out: Percent Control (%)
T8 construct: purchased DiscoverX
T8 sequence (Q13976 1-671): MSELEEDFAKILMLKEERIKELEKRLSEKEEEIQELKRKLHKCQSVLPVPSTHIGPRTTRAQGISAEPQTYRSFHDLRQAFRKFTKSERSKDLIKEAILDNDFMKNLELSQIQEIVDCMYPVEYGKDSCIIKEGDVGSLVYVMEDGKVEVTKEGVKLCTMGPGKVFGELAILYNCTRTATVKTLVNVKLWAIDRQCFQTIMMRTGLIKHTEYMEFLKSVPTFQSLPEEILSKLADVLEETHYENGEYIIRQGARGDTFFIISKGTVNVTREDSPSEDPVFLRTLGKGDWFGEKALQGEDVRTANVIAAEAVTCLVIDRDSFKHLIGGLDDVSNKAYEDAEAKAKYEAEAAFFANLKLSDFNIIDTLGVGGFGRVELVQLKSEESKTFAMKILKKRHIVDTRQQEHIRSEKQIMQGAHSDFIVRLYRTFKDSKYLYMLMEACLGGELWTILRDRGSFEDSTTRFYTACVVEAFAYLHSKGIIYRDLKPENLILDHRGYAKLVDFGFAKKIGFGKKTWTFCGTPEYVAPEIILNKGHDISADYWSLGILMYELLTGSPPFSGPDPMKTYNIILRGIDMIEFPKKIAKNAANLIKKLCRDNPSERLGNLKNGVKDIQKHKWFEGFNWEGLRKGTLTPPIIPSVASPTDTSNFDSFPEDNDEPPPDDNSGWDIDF
Procedure, shortened: as §1

T7 sequence (Q13705 19-512): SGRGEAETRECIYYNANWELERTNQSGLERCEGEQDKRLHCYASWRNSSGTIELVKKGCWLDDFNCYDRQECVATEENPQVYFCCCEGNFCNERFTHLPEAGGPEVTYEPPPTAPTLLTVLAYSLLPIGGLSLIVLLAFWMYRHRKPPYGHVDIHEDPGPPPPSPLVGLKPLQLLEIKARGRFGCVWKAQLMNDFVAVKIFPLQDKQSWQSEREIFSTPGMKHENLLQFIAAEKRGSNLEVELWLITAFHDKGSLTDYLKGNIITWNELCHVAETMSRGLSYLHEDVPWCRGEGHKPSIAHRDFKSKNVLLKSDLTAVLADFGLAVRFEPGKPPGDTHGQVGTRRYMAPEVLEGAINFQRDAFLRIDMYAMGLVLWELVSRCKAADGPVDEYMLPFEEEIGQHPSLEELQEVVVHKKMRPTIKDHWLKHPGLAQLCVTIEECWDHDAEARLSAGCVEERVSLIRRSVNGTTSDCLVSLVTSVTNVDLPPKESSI
T4 sequence (P42336 whole entry H1047L): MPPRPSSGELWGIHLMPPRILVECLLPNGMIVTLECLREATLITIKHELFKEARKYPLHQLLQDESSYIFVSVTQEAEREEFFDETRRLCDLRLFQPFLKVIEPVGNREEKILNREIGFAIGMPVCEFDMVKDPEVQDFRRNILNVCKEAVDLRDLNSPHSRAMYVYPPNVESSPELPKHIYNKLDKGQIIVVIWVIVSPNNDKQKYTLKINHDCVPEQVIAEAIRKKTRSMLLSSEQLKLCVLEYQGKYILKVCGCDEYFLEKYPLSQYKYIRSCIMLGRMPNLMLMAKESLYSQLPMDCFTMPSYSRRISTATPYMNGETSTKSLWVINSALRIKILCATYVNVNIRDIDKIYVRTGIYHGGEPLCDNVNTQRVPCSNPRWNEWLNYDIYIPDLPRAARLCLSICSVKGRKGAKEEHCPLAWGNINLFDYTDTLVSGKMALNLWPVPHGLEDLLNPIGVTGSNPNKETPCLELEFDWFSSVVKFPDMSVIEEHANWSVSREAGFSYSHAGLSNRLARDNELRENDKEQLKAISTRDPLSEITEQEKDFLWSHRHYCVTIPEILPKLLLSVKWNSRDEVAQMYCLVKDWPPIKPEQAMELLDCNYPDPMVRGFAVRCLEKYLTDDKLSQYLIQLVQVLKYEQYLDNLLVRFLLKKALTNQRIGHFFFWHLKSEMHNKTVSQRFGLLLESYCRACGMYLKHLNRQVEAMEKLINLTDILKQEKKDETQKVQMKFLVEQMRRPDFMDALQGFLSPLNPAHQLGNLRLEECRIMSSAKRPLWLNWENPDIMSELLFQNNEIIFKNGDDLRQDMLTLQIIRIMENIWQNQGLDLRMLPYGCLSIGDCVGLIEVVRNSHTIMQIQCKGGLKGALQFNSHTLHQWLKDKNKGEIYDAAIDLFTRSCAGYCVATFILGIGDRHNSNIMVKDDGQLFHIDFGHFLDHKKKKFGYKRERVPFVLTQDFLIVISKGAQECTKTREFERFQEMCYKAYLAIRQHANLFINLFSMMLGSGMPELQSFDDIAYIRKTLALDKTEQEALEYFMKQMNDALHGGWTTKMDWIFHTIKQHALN
T1 sequence (P00533 25-1210 T790M): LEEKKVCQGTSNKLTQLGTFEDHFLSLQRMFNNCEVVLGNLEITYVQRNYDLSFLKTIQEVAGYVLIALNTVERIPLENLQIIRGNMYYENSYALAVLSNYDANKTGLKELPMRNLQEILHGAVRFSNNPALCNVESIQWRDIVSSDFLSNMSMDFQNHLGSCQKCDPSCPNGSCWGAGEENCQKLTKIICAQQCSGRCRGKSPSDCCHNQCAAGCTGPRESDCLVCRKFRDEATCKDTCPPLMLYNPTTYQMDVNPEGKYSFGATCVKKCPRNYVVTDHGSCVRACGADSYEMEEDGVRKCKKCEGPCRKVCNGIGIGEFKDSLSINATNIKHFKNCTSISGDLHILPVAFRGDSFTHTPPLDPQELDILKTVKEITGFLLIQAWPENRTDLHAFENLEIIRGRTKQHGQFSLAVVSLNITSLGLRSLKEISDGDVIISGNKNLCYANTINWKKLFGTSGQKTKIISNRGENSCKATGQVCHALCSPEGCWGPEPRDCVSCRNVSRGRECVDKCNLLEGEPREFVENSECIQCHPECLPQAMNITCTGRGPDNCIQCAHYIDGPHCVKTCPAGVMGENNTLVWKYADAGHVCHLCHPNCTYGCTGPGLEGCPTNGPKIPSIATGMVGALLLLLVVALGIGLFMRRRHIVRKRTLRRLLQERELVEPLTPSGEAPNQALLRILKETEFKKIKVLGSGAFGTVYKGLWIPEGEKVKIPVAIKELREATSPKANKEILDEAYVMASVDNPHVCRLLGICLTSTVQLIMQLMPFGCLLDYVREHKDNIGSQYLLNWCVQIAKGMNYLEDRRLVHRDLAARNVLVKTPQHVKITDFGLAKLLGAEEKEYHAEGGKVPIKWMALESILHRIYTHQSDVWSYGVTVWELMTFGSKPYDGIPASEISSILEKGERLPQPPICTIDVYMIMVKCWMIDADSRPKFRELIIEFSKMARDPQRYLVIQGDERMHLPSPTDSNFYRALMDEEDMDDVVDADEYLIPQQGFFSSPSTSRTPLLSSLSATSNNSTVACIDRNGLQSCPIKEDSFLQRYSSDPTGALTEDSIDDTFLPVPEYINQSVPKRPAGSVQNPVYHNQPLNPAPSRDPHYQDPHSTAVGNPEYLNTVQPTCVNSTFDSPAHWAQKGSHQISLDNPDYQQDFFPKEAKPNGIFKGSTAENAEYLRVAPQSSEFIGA
T5 sequence (P48736 whole entry): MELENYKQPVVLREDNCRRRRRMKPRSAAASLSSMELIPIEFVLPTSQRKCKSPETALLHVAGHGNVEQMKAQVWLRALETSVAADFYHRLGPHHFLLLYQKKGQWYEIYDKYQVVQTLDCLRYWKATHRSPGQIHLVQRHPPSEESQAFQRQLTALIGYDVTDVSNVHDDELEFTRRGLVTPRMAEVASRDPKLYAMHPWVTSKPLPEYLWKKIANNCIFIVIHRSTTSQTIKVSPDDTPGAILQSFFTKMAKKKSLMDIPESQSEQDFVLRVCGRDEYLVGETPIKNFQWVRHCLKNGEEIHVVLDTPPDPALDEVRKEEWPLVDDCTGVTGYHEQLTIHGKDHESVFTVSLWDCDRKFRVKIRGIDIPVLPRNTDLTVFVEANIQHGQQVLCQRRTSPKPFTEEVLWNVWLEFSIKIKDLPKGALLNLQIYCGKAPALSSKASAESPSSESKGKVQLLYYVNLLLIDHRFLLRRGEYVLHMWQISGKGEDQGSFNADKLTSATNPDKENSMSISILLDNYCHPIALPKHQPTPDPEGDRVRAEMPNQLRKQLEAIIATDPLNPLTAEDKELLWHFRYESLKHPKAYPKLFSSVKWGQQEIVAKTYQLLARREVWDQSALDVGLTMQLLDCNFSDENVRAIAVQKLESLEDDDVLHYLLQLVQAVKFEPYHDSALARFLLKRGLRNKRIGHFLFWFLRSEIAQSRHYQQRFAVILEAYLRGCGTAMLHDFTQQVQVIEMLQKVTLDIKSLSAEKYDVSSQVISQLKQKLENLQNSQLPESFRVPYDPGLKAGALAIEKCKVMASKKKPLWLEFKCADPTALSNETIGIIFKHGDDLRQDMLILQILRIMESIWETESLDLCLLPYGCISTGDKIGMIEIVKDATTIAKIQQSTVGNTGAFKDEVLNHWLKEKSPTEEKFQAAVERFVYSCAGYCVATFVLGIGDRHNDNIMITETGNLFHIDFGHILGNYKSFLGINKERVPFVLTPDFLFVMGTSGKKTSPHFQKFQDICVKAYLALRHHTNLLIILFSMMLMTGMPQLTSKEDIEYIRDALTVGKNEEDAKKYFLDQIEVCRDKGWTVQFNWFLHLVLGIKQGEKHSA
T6 sequence (Q13153 whole entry): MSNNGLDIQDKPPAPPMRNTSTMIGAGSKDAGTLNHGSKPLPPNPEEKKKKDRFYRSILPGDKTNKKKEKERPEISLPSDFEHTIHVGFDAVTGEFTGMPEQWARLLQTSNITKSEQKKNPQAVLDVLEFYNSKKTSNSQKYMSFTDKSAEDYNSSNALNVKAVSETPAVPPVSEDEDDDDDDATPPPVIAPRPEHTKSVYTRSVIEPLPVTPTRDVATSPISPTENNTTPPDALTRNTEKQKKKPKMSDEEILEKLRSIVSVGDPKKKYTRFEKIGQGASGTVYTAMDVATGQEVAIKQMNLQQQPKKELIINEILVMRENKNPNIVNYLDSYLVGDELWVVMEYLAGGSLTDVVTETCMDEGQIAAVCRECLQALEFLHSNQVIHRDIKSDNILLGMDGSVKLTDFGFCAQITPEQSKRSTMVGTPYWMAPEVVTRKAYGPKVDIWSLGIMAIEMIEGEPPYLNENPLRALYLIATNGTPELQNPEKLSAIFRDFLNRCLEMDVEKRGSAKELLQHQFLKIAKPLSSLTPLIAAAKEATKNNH

Cc1ccc(C(=O)Nc2ccc(CN3CCN(C)CC3)c(C(F)(F)F)c2)cc1C#Cc1cnc2c(Nc3cnn(C)c3)cccn12 [Example 1, 4-methyl-3-((8-((1-methyl-1H-pyrazol-4-yl)amino)imidazo[1,2-a]pyridin-3-yl)ethynyl)-N-(4-((4-methylpiperazin-1-yl)methyl)-3-(trifluoromethyl)phenyl)benzamide]
remaining binding at 1 µM [1]: 10%
remaining binding at 1 µM [2]: 1%
remaining binding at 1 µM [3]: 85%
remaining binding at 1 µM [4]: 100%
remaining binding at 1 µM [5]: 100%
remaining binding at 1 µM [6]: 89%
remaining binding at 1 µM [7]: 93%
remaining binding at 1 µM [8]: 94%

Cc1cn(-c2cc(NC(=O)c3ccc(C)c(C#Cc4cnc5c(Nc6cnn(C)c6)cccn45)c3)cc(C(F)(F)F)c2)cn1 [Example 12, 4-methyl-N-(3-(4-methyl-1H-imidazol-1-yl)-5-(trifluoromethyl)phenyl)-3-((8-((1-methyl-1H-pyrazol-4-yl)amino)imidazo[1,2-a]pyridin-3-yl)ethynyl)benzamide]
remaining binding at 1 µM [1]: 75%
remaining binding at 1 µM [2]: 10%
remaining binding at 1 µM [3]: 85%
remaining binding at 1 µM [4]: 100%
remaining binding at 1 µM [5]: 100%
remaining binding at 1 µM [6]: 87%
remaining binding at 1 µM [7]: 96%
remaining binding at 1 µM [8]: 86%

Cc1ccc(NC(=O)C2(C(=O)Nc3ccc(F)cc3)CC2)cc1C#Cc1cnc2c(Nc3cnn(C(C)C)c3)cccn12 [Example 78]
remaining binding at 1 µM [1]: 100%
remaining binding at 1 µM [2]: 95%
remaining binding at 1 µM [3]: 100%
remaining binding at 1 µM [4]: 92%
remaining binding at 1 µM [5]: 100%
remaining binding at 1 µM [6]: 100%
remaining binding at 1 µM [7]: 94%
remaining binding at 1 µM [8]: 100%
